Measured values as given in DBAASP.
≈ marks a conversion by molar mass, not a printed value.

Tests used:
Test in all cases: ≥ marks a high value that may be exact or a test limit, other limits are often not marked, values filed in µg/mL are converted to µM
[1] = tested on: Escherichia coli ATCC 25922
[2] = tested on: Bacillus subtilis ATCC 23857
[3] = tested on: Staphylococcus aureus USA 100
[4] = tested on: Klebsiella pneumoniae ATCC 700603
[5] = tested on: Escherichia coli
[6] = tested on: Staphylococcus aureus ATCC 25923
[7] = tested on: Staphylococcus aureus USA 300
[8] = tested on: Pseudomonas aeruginosa ATCC 9027
[9] = tested on: Candida albicans ATCC 90028
[10] = tested on: Escherichia coli JW0013

SMILES	MIC [1] [µM]	MIC [2] [µM]	MIC [3] [µM]	MIC [4] [µM]	MIC [6] [µM]	MIC [8] [µM]	also measured
CC[C@H](C)[C@H](NC(=O)CN)C(=O)N[C@H](C(=O)N[C@@H](C)C(=O)NCC(=O)N[C@H](C(=O)N[C@H](C(=O)N[C@@H](C)C(=O)N[C@@H](CCCCN)C(=O)N[C@H](C(=O)N[C@@H](CCCCN)C(=O)N[C@@H](CCCCN)C(N)=O)[C@@H](C)CC)[C@@H](C)CC)[C@@H](C)CC)[C@@H](C)CC [GIIAGIIAKIKK]	> 128	≥ 32					
CC[C@H](C)[C@H](NC(=O)CN)C(=O)N[C@H](C(=O)N[C@@H](CCCN=C(N)N)C(=O)NCC(=O)N[C@H](C(=O)N[C@H](C(=O)N[C@@H](CCCCN)C(=O)N[C@H](C(=O)N[C@H](C(=O)N[C@@H](CCCCN)C(=O)N[C@@H](CCCN=C(N)N)C(N)=O)[C@@H](C)CC)[C@@H](C)CC)[C@@H](C)CC)[C@@H](C)CC)[C@@H](C)CC [GIIRGIIKIIKR]	64 (≈ 88.2 µg/mL)	8 (≈ 11 µg/mL)					
NC(=O)[C@H](CCCN=C(N)N)NC(=O)[C@H](CCCN=C(N)N)NC(=O)[C@H](CCCN=C(N)N)NC(=O)[C@@H](N)CCCN=C(N)N [RRRR]			≥ 100				
CC[C@H](C)[C@H](NC(=O)[C@H](CCCCN)NC(=O)[C@H](CCCCN)NC(=O)[C@H](C)NC(=O)[C@@H](NC(=O)[C@H](C)NC(=O)[C@H](CC(C)C)NC(=O)[C@H](CC(C)C)NC(=O)[C@H](CCCCN)NC(=O)[C@H](CCCCN)NC(=O)[C@H](CC(C)C)NC(=O)[C@H](CC(N)=O)NC(=O)CN)C(C)C)C(=O)N[C@@H](CC(C)C)C(N)=O [GNLKKLLAVAKKIL]		4 (≈ 6.03 µg/mL)		16 (≈ 24.1 µg/mL)	16 (≈ 24.1 µg/mL)		MIC [5]: 4 µM (≈ 6.03 µg/mL)
CC(C)C[C@H](NC(=O)[C@H](CCCN=C(N)N)NC(=O)[C@@H](N)CC(C)C)C(=O)N[C@@H](CCCN=C(N)N)C(N)=O [LRLR]			≥ 100				
NCCCC[C@H](NC(=O)[C@H](Cc1c[nH]c2ccccc12)NC(=O)[C@H](CCCCN)NC(=O)[C@H](Cc1c[nH]c2ccccc12)NC(=O)[C@@H](N)CCCCN)C(=O)N[C@@H](Cc1c[nH]c2ccccc12)C(=O)O [KWKWKW]			≥ 100			> 100	MIC [7]: ≥ 100 µM; MIC [9]: ≥ 100 µM
CC(C)C[C@H](NC(=O)[C@H](C)NC(=O)[C@H](CCCCN)NC(=O)[C@H](CC(C)C)NC(=O)[C@H](CC(N)=O)NC(=O)[C@@H](N)CC(C)C)C(=O)N[C@@H](CC(C)C)C(=O)N[C@@H](C)C(=O)N[C@H](C(=O)N[C@@H](C)C(=O)N[C@@H](CCCCN)C(=O)N[C@@H](CCCCN)C(N)=O)C(C)C [LNLKALLAVAKK]	> 128	≥ 128		> 128	> 128	> 128	
NC(=O)[C@H](CCCN=C(N)N)NC(=O)[C@H](CCC(=O)O)NC(=O)[C@H](CCCN=C(N)N)NC(=O)[C@@H](N)CCC(=O)O [ERER]			≥ 100				
CC[C@H](C)[C@H](NC(=O)[C@H](CCCN=C(N)N)NC(=O)[C@H](CCCN=C(N)N)NC(=O)[C@@H]1CCCN1C(=O)[C@@H]1CCCN1C(=O)[C@H](CCCN=C(N)N)NC(=O)[C@@H]1CCCN1C(=O)[C@H](CCCN=C(N)N)NC(=O)[C@@H]1CCCN1C(=O)[C@H](CCCCN)NC(=O)[C@H](CCCN=C(N)N)NC(=O)[C@@H]1CCCN1C(=O)[C@H](CCCCN)NC(=O)[C@H](CCCCN)NC(=O)[C@H](CC(=O)O)NC(=O)[C@@H](N)C(C)C)C(=O)N[C@@H](Cc1ccc(O)cc1)C(=O)N[C@@H](CC(N)=O)C(=O)N[C@@H](CCCN=C(N)N)C(N)=O [VDKKPRKPRPRPPRRIYNR]							MIC [10]: 1.36 µM (≈ 3.3 µg/mL)
CC[C@H](C)[C@H](NC(=O)[C@H](CCCCN)NC(=O)[C@H](CCCCN)NC(=O)[C@H](C)NC(=O)[C@H](C)NC(=O)[C@H](C)NC(=O)[C@H](CC(C)C)NC(=O)[C@H](CC(C)C)NC(=O)[C@H](C)NC(=O)[C@H](CCCCN)NC(=O)[C@H](CC(C)C)NC(=O)[C@H](CC(N)=O)NC(=O)[C@@H](N)CC(C)C)C(=O)N[C@@H](CC(C)C)C(N)=O [LNLKALLAAAKKIL]	8 (≈ 11.8 µg/mL)	8 (≈ 11.8 µg/mL)		16 (≈ 23.7 µg/mL)	16 (≈ 23.7 µg/mL)	16 (≈ 23.7 µg/mL)	
